Experimental findings from US10538555B2, “Macrocyclic inhibitors of the PD-1/PD-L1 and CD80(B7-1)/PD-L1 protein/protein interactions” (BRISTOL-MYERS SQUIBB COMPANY, priority 2014, dated 2020) are described below.

Where a SMILES comes first, the peptide text is derived from it. Bridges are numbered along the chain shown (N, C = ends). [ ]: non-standard residue; d: D form. ξ: configuration not given here. Trp(1-CH2COOH) = N[C@@H](Cc1cn(CC(=O)O)c2ccccc12)C(=O)O; Trp(βS-Me) = C[C@@H](c1c[nH]c2ccccc12)[C@H](N)C(=O)O; Phe(3,4,5-F3) = N[C@@H](Cc1cc(F)c(F)c(F)c1)C(=O)O; Phe(3,4-F2) = N[C@@H](Cc1ccc(F)c(F)c1)C(=O)O; NMePhe(4-F) = CN[C@@H](Cc1ccc(F)cc1)C(=O)O; Phe(4-F) = N[C@@H](Cc1ccc(F)cc1)C(=O)O; d(cisHyp) = O=C(O)[C@H]1C[C@@H](O)CN1; Bta = N[C@@H](Cc1csc2ccccc12)C(=O)O; NMeIle(3ξ) = CCC(C)[C@H](NC)C(=O)O; Hyp = O=C(O)[C@@H]1C[C@@H](O)CN1; NMeF = CN[C@@H](Cc1ccccc1)C(=O)O; dNMeF = CN[C@H](Cc1ccccc1)C(=O)O; dHyp = O=C(O)[C@H]1C[C@H](O)CN1; NMehSer = CN[C@@H](CCO)C(=O)O; NMeNle = CCCC[C@H](NC)C(=O)O; dNle = CCCC[C@@H](N)C(=O)O; Pip = O=C(O)[C@@H]1CCCCN1; dPip = O=C(O)[C@H]1CCCCN1; NMeA = CN[C@@H](C)C(=O)O; Orn = NCCC[C@H](N)C(=O)O; Dab = NCC[C@H](N)C(=O)O; Dap = NC[C@H](N)C(=O)O; ξC = NC(CS)C(=O)O

The target of this test is T1, Human PD-L1/PD-1 (Homo sapiens, UniProt Q9NZQ7).
T1 construct: TVMV protease cleavage site (C); made in house; host or cells: HEK293T cells
T1 sequence (Q9NZQ7 with tags, fused parts or gaps): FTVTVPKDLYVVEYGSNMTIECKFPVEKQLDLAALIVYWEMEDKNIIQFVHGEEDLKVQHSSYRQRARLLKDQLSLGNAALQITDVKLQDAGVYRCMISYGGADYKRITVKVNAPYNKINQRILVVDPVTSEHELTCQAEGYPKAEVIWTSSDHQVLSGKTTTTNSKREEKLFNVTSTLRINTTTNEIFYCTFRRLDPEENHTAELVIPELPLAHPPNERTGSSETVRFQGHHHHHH
Put plainly: HTRF Human PD-L1/PD-1 binding assay (PD-1-Ig/PD-L1-His). To be noted: PD-L1-His 10 nM, PD-1-Ig 20 nM; class symbol; read-out: HTRF Human PD-L1/PD-1 Binding Assay IC50 Range. The procedure, abridged: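 HTRF read-out (665/620 nm ratio) after 30 min equilibration with Eu-cryptate anti-Ig mAb (1 nM) and APC anti-His mAb (20 nM). Peptides preincubated 15 min with PD-L1-His (10 nM), then PD-1-Ig (20 nM) added for 15 min.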
In general terms: In TR-FRET formats the signal depends on donor and acceptor labels being close together.
Take `CCCC[C@H]1C(=O)N2C[C@@H](O)C[C@@H]2C(=O)N[C@@H](CC(=O)O)C(=O)N[C@@H](C(C)C)C(=O)N(C)[C@@H](Cc2ccccc2)C(=O)N[C@@H](CCC(=O)O)C(=O)N2C[C@@H](O)C[C@@H]2C(=O)N[C@@H](Cc2c[nH]c3ccccc23)C(=O)N[C@@H](Cc2ccc(O)cc2)C(=O)N[C@@H](CCCN)C(=O)N[C@H](C(=O)NCC(N)=O)CSCC(=O)N[C@@H](Cc2cc(F)c(F)c(F)c2)C(=O)N(C)[C@@H](Cc2ccccc2)C(=O)N1C` [Example 9276] ({CH2CO}-[Phe(3,4,5-F3)][NMeF][NMeNle][dHyp]DV[NMeF]E[dHyp]WY[Orn]CG-NH2; thioether N-13): the IC50 lay within 1 to 9.9 nM.

For the compound `CC(C)C[C@@H]1NC(=O)[C@H](Cc2ccc(O)cc2)NC(=O)[C@H](Cc2c[nH]c3ccccc23)NC(=O)[C@H]2CCCCN2C(=O)[C@H](Cc2ccc(O)cc2)NC(=O)[C@H](Cc2ccccc2)N(C)C(=O)[C@H](C(C)C)NC(=O)[C@H](CC(=O)O)NC(=O)[C@H]2CCCN2C(=O)[C@H](C)N(C)C(=O)[C@H](Cc2ccc(F)cc2)N(C)C(=O)[C@H](Cc2cc(F)c(F)c(F)c2)NC(=O)CSC[C@@H](C(=O)NCC(N)=O)NC1=O` [Example 10542] ({CH2CO}-[Phe(3,4,5-F3)][NMePhe(4-F)][NMeA][dP]DV[NMeF]Y[dPip]WYLCG-NH2; thioether N-13), the IC50 lay in the range of 1 to 9.9 nM.

As to `CCCC[C@H]1C(=O)N(C)[C@@H](CCCC)C(=O)N[C@@H](CN)C(=O)N[C@H](C(=O)NCC(N)=O)CSCC(=O)N[C@@H](Cc2ccc(O)cc2)C(=O)N(C)[C@@H](C)C(=O)N[C@@H](CC(=O)O)C(=O)N2CCC[C@H]2C(=O)N[C@@H](Cc2c[nH]cn2)C(=O)N[C@@H](CCC(N)=O)C(=O)N2C[C@H](O)C[C@H]2C(=O)N[C@@H](Cc2c[nH]c3ccccc23)C(=O)N[C@@H](CO)C(=O)N[C@@H](Cc2cn(CC(=O)O)c3ccccc23)C(=O)N1C` [Example 5163] ({CH2CO}-Y[NMeA]DPHQ[Hyp]WS[Trp(1-CH2COOH)][NMeNle][NMeNle][Dap]CG-NH2; thioether N-14), the IC50 was in the range of 1 to 9.9 nM.

As to `CCCC[C@H]1C(=O)N2C[C@H](O)C[C@@H]2C(=O)N[C@@H](CC(=O)O)C(=O)N[C@@H](C(C)C)C(=O)N(C)[C@H](Cc2ccccc2)C(=O)N[C@@H](CCCCN)C(=O)N2C[C@H](O)C[C@@H]2C(=O)N[C@@H](Cc2c[nH]c3ccccc23)C(=O)N[C@@H](Cc2ccc(O)cc2)C(=O)N[C@@H](CCCN)C(=O)N[C@H](C(=O)NCC(N)=O)CSCC(=O)N[C@@H](Cc2ccc(F)c(F)c2)C(=O)N(C)[C@@H](Cc2ccccc2)C(=O)N1C` [Example 9307] ({CH2CO}-[Phe(3,4-F2)][NMeF][NMeNle][d(cisHyp)]DV[dNMeF]K[d(cisHyp)]WY[Orn]CG-NH2; thioether N-13), the IC50 lay in the range of 1 to 9.9 nM.

For `CCCC[C@H]1NC(=O)[C@H](Cc2csc3ccccc23)NC(=O)[C@H](CO)NC(=O)[C@H](Cc2c[nH]c3ccccc23)NC(=O)[C@@H]2C[C@@H](O)CN2C(=O)[C@H](CC(C)C)NC(=O)[C@H](Cc2cnc[nH]2)NC(=O)[C@@H]2CCCN2C(=O)[C@H](CC(N)=O)NC(=O)[C@H](C)N(C)C(=O)[C@H](Cc2ccc(O)cc2)NC(=O)CSCC(C(=O)NCC(N)=O)NC(=O)[C@H](CCCNC(=N)N)NC(=O)[C@H](CCCC)N(C)C1=O` (some centres unmarked) [Example 10123] ({CH2CO}-Y[NMeA]NPHL[Hyp]WS[Bta][dNle][NMeNle]R[ξC]G-NH2; thioether N-14), the IC50 is 100 to 990 nM.

On to `CCCC[C@H]1C(=O)N2C[C@H](O)C[C@@H]2C(=O)N[C@@H](CC(=O)O)C(=O)N[C@@H](C(C)C)C(=O)N(C)[C@@H](Cc2ccccc2)C(=O)N[C@@H](CC(N)=O)C(=O)N2C[C@H](O)C[C@@H]2C(=O)N[C@@H](Cc2c[nH]c3ccccc23)C(=O)N[C@@H](Cc2ccc(O)cc2)C(=O)N[C@@H](CCC(=O)O)C(=O)N[C@H](C(=O)NCC(N)=O)CSCC(=O)N[C@@H](Cc2cc(F)c(F)c(F)c2)C(=O)N(C)[C@@H](Cc2ccccc2)C(=O)N1C` [Example 9366] ({CH2CO}-[Phe(3,4,5-F3)][NMeF][NMeNle][d(cisHyp)]DV[NMeF]N[d(cisHyp)]WYECG-NH2; thioether N-13), for which the IC50 was 10 to 99.9 nM.

For `CCCC[C@H]1C(=O)N(C)[C@@H](CCCC)C(=O)N[C@@H](CCC(=O)O)C(=O)N[C@H](C(=O)NCC(N)=O)CSCC(=O)N[C@@H](Cc2ccc(O)cc2)C(=O)N2CCCC[C@H]2C(=O)N[C@@H](CC(=O)O)C(=O)N2CCC[C@H]2C(=O)N[C@@H](Cc2cnc[nH]2)C(=O)N[C@@H](CCC(=O)O)C(=O)N2C[C@H](O)C[C@H]2C(=O)N[C@@H](Cc2c[nH]c3ccccc23)C(=O)N[C@@H](CO)C(=O)N[C@@H](Cc2c[nH]c3ccccc23)C(=O)N1C` [Example 1256] ({CH2CO}-Y[Pip]DPHE[Hyp]WSW[NMeNle][NMeNle]ECG-NH2; thioether N-14), the IC50 was 1 to 9.9 nM.

As to `CCCC[C@H]1C(=O)N(C)[C@@H](C)C(=O)N[C@@H](CCCNC(=N)N)C(=O)NC(C(=O)NCC(N)=O)CSCC(=O)N[C@@H](Cc2ccc(O)cc2)C(=O)N(C)[C@@H](C)C(=O)N[C@@H](CC(N)=O)C(=O)N2CCC[C@H]2C(=O)N[C@@H](CC(N)=O)C(=O)N[C@@H](CC(C)C)C(=O)N2C[C@H](O)C[C@H]2C(=O)N[C@@H](Cc2c[nH]c3ccccc23)C(=O)N[C@@H](CO)C(=O)N[C@@H](Cc2c[nH]c3ccccc23)C(=O)N1C` (some centres unmarked) [Example 9138] ({CH2CO}-Y[NMeA]NPNL[Hyp]WSW[NMeNle][NMeA]R[ξC]G-NH2; thioether N-14), the IC50 lay in the range of 1 to 9.9 nM.

With `CCCC[C@H]1C(=O)N2CCC[C@@H]2C(=O)N[C@@H](CC(=O)O)C(=O)N[C@@H](C(C)C)C(=O)N(C)[C@@H](C(C)CC)C(=O)N[C@@H](CCC(N)=O)C(=O)N2CCCC[C@@H]2C(=O)N[C@@H](Cc2c[nH]c3ccccc23)C(=O)N[C@@H](Cc2ccc(O)cc2)C(=O)N[C@@H](CCCN)C(=O)N[C@H](C(=O)NCC(N)=O)CSCC(=O)N[C@@H](Cc2ccc(F)cc2)C(=O)N(C)[C@@H](Cc2ccccc2)C(=O)N1C` (some centres unmarked) [Example 9263] ({CH2CO}-[Phe(4-F)][NMeF][NMeNle][dP]DV[NMeIle(3ξ)]Q[dPip]WY[Orn]CG-NH2; thioether N-13), the IC50 was in the range of 1000 to 10000 nM.

For the compound `CCCC[C@H]1C(=O)N[C@@H](CC(N)=O)C(=O)N2CCC[C@H]2C(=O)N[C@@H](Cc2c[nH]cn2)C(=O)N[C@@H](CCC(N)=O)C(=O)N2C[C@H](O)C[C@H]2C(=O)N[C@@H]([C@@H](C)c2c[nH]c3ccccc23)C(=O)N[C@@H](CO)C(=O)N[C@@H](Cc2c[nH]c3ccccc23)C(=O)N(C)[C@@H](C)C(=O)N(C)[C@@H](C)C(=O)N[C@@H](CC(C)C)C(=O)N[C@H](C(=O)NCC(N)=O)CSCC(=O)N[C@@H](Cc2ccc(O)cc2)C(=O)N1C` [Example 10536] ({CH2CO}-Y[NMeNle]NPHQ[Hyp][Trp(βS-Me)]SW[NMeA][NMeA]LCG-NH2; thioether N-14), the IC50 is 1000 to 10000 nM.

As for `CCCC[C@H]1C(=O)N(C)[C@@H](CCCC)C(=O)N[C@@H](CCC(=O)O)C(=O)N[C@H](C(=O)NCC(N)=O)CSCC(=O)N[C@@H](Cc2ccc(O)cc2)C(=O)N(C)[C@@H](C)C(=O)N[C@@H](CC(=O)O)C(=O)N2CCC[C@H]2C(=O)N[C@@H](CN)C(=O)N[C@@H](CCC(N)=O)C(=O)N2C[C@H](O)C[C@H]2C(=O)N[C@@H](Cc2c[nH]c3ccccc23)C(=O)N[C@@H](CCN)C(=O)N[C@@H](Cc2cn(CC(=O)O)c3ccccc23)C(=O)N1C` [Example 6189] ({CH2CO}-Y[NMeA]DP[Dap]Q[Hyp]W[Dab][Trp(1-CH2COOH)][NMeNle][NMeNle]ECG-NH2; thioether N-14), the IC50 fell in the range of 1 to 9.9 nM.

Take `CCCC[C@H]1C(=O)N(C)[C@@H](CCCC)C(=O)N[C@@H](CCC(=O)O)C(=O)N[C@H](C(=O)NCC(N)=O)CSCC(=O)N[C@@H](Cc2ccc(O)cc2)C(=O)N2CCCC[C@H]2C(=O)N[C@@H](CC(=O)O)C(=O)N2CCC[C@H]2C(=O)N[C@@H](CN)C(=O)N[C@@H](CCC(=O)O)C(=O)N2C[C@H](O)C[C@H]2C(=O)N[C@@H](Cc2c[nH]c3ccccc23)C(=O)N[C@@H](CCN)C(=O)N[C@@H](Cc2c[nH]c3ccccc23)C(=O)N1C` [Example 1262] ({CH2CO}-Y[Pip]DP[Dap]E[Hyp]W[Dab]W[NMeNle][NMeNle]ECG-NH2; thioether N-14): the IC50 lay in the range of 1 to 9.9 nM.

Regarding `COCC[C@H]1C(=O)N2C[C@@H](O)C[C@@H]2C(=O)N[C@@H](CC(=O)O)C(=O)N[C@@H](C(C)C)C(=O)N(C)[C@H](Cc2ccccc2)C(=O)N[C@@H](Cc2ccc(OC)cc2)C(=O)N2C[C@@H](O)C[C@@H]2C(=O)N[C@@H](Cc2c[nH]c3ccccc23)C(=O)N[C@@H](Cc2ccc(O)cc2)C(=O)N[C@@H](CCCN)C(=O)N[C@H](C(=O)NCC(N)=O)CSCC(=O)N[C@@H](Cc2ccc(F)c(F)c2)C(=O)N(C)[C@@H](Cc2ccccc2)C(=O)N1C` [Example 9240] ({CH2CO}-[Phe(3,4-F2)][NMeF][NMehSer](Me)[dHyp]DV[dNMeF]Y(Me)[dHyp]WY[Orn]CG-NH2; thioether N-13), the IC50 is 1 to 9.9 nM.

For the compound `CCCC[C@H]1C(=O)N(C)[C@@H](CCCC)C(=O)N[C@@H](CCC(=O)O)C(=O)N[C@H](C(=O)NCC(N)=O)CSCC(=O)N[C@@H](Cc2ccc(O)cc2)C(=O)N(C)[C@@H](C)C(=O)N[C@@H](CC(=O)O)C(=O)N2CCC[C@H]2C(=O)N[C@@H](Cc2cnc[nH]2)C(=O)N[C@@H](CCC(N)=O)C(=O)N2C[C@H](O)C[C@H]2C(=O)N[C@@H](Cc2c[nH]c3ccccc23)C(=O)N[C@@H](CO)C(=O)N[C@@H](Cc2cn(CC(=O)O)c3ccccc23)C(=O)N1C` [Example 6335] ({CH2CO}-Y[NMeA]DPHQ[Hyp]WS[Trp(1-CH2COOH)][NMeNle][NMeNle]ECG-NH2; thioether N-14), the IC50 is 1 to 9.9 nM.
